Reference: patent EP3352763B1 (priority 2015, dated 2017)

Tested on: A/Mississippi/3/2001/Variante, H1N1
Type: cell-based, Influenzaviren

Compound: O=C(/C=C/c1ccc(O)cc1)OC[C@H]1O[C@@H](Oc2c(-c3ccc(O)cc3)oc3cc(O)cc(O)c3c2=O)[C@H](O)[C@@H](O)[C@@H]1O [Tilirosid, Kaempferol-3-(6"-trans-p-coumaroyl)glucosid]
- Selektivitätsindex (S.I.): 1.047
- antivirale Wirkung: antiviral wirkt
